System: bladder cancer
Assay: Administration of Compound A to human patient suffering from bladder cancer (CT imaging)
Format: in vivo
Conditions: 450 mg orally two times per day for two months

SMILES: CC(C)(C[C@H]1CN(S(=O)(=O)c2cccc(C(F)(F)F)c2)c2cc(-c3cc(F)cc(OC(F)F)c3)ccc2O1)C(=O)O [Compound A]
- reduction in bladder cancer burden compared to burden at start of treatment: 24%

Reference: patent publication US20200261463A1, “TREATMENT OF CANCER USING ARYL DIHYDRO-2H-BENZO[B][1,4]OXAZINE SULFONAMIDE COMPOUNDS” (Lycera Corporation, priority 2017, published 2020)
